For data set [1], the system named is humans. The conditions noted are these: IV single bolus; cited from earlier work.
Data set [2] can be described thus: Transfer rate constants of the Gallimore-Strassman two-compartment model, calculated from G-S Table 2. Also noted: species or system human. The text has this: For consistency with the G-S model, referred to here as FIG. 1 is the (prior art) model from the 2016 paper by Gallimore Strassman (prior art), where: • k10 rate of elimination from the central compartment (min^−1) • k12 transfer rate from central to peripheral compartment (min^−1) • T same as k12 • k21 transfer rate from peripheral to central compartment (min^−1) • K1e transfer rate from central compartment to effect site (min^−1) • Ke0 rate of elimination of drug from the effect site (min^−1) E same as ke0 • CT plasma concentration (mg/ml) • RT rate at which drug reaches the effect site (mg/min) • [C] DMT concentration in the central compartment (mg/ml) • [P] DMT concentration in the peripheral compartment (mg/ml) […].
It should be appreciated that the notation used in the prior art (G-S) is very different from the notation used herein in developing the models in the present disclosure. In G-S (p. 5), E is used for the elimination rate, without it being made clear if this is the elimination rate from the effect site or from the central compartment. Also, T is used interchangeably with k12 from G-S FIG. 1. The extra parameters in G-S Table 2, Vc (L), Vp (L), Km (mg/L), Vm (mg/min), Q12 (L/min) are not defined, modulo a minor footnote (bottom of p. 4) stating that:

The conditions of data set [3]: higher dose, 0.4 mg/kg bolus (G-S FIG. 2A); cited from earlier work.
Data set [4] concerns subject. The conditions noted are these: believed, not measured; cited from earlier work.
The conditions of data set [5]: cited from earlier work.
Data set [6] relates to humans. The following applies: cited from earlier work.
Data set [7] relates to subject. Description: Intramuscular bolus plus infusion of DMT, subject-reported effects. The data set is classed as in vivo, human. As to the method:
In intramuscular infusion, the muscle is first loaded which then diffuses into the peripheral soft tissues, the lymphatics and blood, and then the CNS. The result is a very gentle rise in effect, with the earliest effects usually noticed within the first 2 minutes, and the subject experiencing threshold effects somewhere between 5 and 15 minutes. The intensification of the experience is slow, and while there is some overshoot, it is quite manageable, and usually lasts for only minutes. The key here is turning the pump off when the ideal state is reached, or at the earliest sign of being above the ideal level and reporting when those levels have been achieved.
The same assumptions for IV infusion are made with IM infusion, a 75 kg individual who identifies smoking 25 mg of DMT as an ideal dose. A muscle should be chosen for access with the infusion needle. While any muscle will work, the most favorable option is probably the anterolateral thigh. This allows the patient to be positioned supine comfortably. If the anterolateral thigh is chosen, appropriate garments should be worn by the patient to expose the thigh in a manner that is suitable for access. […]
When the subject is ready, the bolus dose is administered over a short amount of time, preferably about 60 seconds, from time t=0 to t=1 minute. […]

Data set [8] deals with infusion veins. Put plainly: Venous response to intravenous administration of DMT. Type of data set: in vivo. An excerpt:
A second, and perhaps more serious issue, with the Gallimore Strassman paper is the administration of DMT intravenously. […] This is especially true of serotonergic drugs which, as noted, can be phlebitic at the site of administration. This in combination with probable chemical irritation, even with iso-osmolar concentrations buffered to a physiologic pH (using DMT fumarate or similar salt), intravenous thrombophlebitis can occur at a rate

For data set [9], the system named is vein. Description: Additives to the intravenous DMT infusion, flow rate and venous injury. The data set is classed as in vivo. The following applies: magnesium 0.1 mg/mL to 100 mg/mL in DMT infusion or maintenance line. An excerpt:
In this respect, the inventors addressed the following goals: • 1. […] A method for combining goals 1 and/or 2 with nitroglycerine ointment on the vein to be cannulated prior to gaining intravenous access, which improves vein patency and dilution from blood flow as well as normal saline. • 4. A method for creating an injectable form of a DMT salt such as fumarate, or freebase DMT in a solution or suspension or emulsion in an iso-osmolar or near iso-osmolar carrier such as hyaluronic acid or polyethylene glycol, as to minimize molecular interaction with the walls and endothelium of the peripheral vasculature, while maintaining water soluble or miscible properties as to not adversely affect the pharmacokinetics. • 5. A method for utilizing goal 4, with any other drug or substance that may cause venous irritation, to minimize the risk of thrombophlebitis, such as nanoparticles or crystals in suspension, or similarly, chemotherapeutic drugs, anesthetic agents and the like.

The mark [10] stands for this setting: inhaling vaporized or smoked DMT, or single IV bolus.

Each structure is given as a SMILES string.

Consider `CN(C)CCc1c[nH]c2ccccc12` [DMT, N,N-dimethyltryptamine], for which, in data set [1], the “onset of psychological effects” value was “almost immediately after administration”, the “time by which psychological effects were almost completely resolved” value is recorded as ≤ 30 minutes and the “time of peak psychological effects” value is given as 90 to 120 seconds. In data set [2] (0.2 mg/kg), the “k12, transfer rate from central to peripheral compartment” value was 0.3286 min⁻¹ and the “k21, transfer rate from peripheral to central compartment” value was 0.2 min⁻¹. In addition, in data set [2] (0.4 mg/kg), the “k12, transfer rate from central to peripheral compartment” value was 0.6021 min⁻¹ and the “k21, transfer rate from peripheral to central compartment” value is 0.1647 min⁻¹. Moreover, the blood concentration in [3] was 100 ng/mL. In addition, in data set [4], the “CNS concentration equating to a full experience” value was “roughly 100 ng/ml” and the “CNS concentration equating to a threshold experience” value is “roughly 60 ng/ml”. Also, the biological half-life result in [5] (in vivo) is on record as “in the range of minutes”. Further, the “half-life of injected DMT” value in data set [5] (injected) is “about 15 minutes”. For the same molecule, in [6] (setting [10]), the duration of experience was 10 to 15 min and the “time of peak experience” value is on record as “around 5 minutes”. Further, the “effect of oral ingestion” value in data set [6] (oral ingestion, rapid metabolism by monoamine oxidase) is “virtually no effect”. Besides, the “time to earliest drug effects” value in data set [7] was ≤ 2 min. In data set [7] (pump off), the “time for drug effects to fully abate after pump is turned off” value is on record as “within about an hour or less”. Besides, the “venous effects of intravenous administration” value in [8] is “causing vasoconstriction, phlebitis and eventual closing of the infusion veins”.
For `[Mg+2]` [magnesium], the “effect on venous injury” value in data set [9] is on record as “decrease venous injury”.

Values taken from patent US20240390581A1, “METHOD AND APPARATUS FOR A STEADY STATE INT[…] OF SEROTONERGIC DRUGS” (PSOULMED, LLC, priority 2021, published 2024).
